Test results taken from BigSolDB 2.1.

CCCSc1nc(N[C@@H]2C[C@H]2c2ccc(F)c(F)c2)c2nnn([C@@H]3C[C@H](OCCO)[C@@H](O)[C@H]3O)c2n1
solubility (mole fraction)
Settings	273.15 K	278.15 K	283.15 K	288.15 K	293.15 K	298.15 K	303.15 K	308.15 K	313.15 K
in ethyl acetate	0.00246	0.00306	0.00399	0.00496	0.00602	0.00717	0.00899	0.0112	0.0139
in isopropanol	0.00074	0.00102	0.00138	0.00213	0.00304	0.00415	0.00571	0.00785	0.0112
in isopropyl acetate	0.0011	0.00136	0.00171	0.00205	0.00243	0.00295	0.00355	0.0045	0.00545
in n-butanol	0.00106	0.00155	0.0021	0.00278	0.00371	0.00476	0.00633	0.00826	0.0114
in n-propanol	0.00212	0.00288	0.00387	0.00513	0.00683	0.00958	0.0128	0.0165	0.0222
in sec-butanol	0.000855	0.00116	0.00181	0.00249	0.00359	0.00494	0.00693	0.00992	0.0137
